Laboratory results reported in US10085953B2, “Skin cancer treatment” (Avexxin AS, priority 2014, dated 2018).
Entries after “also recorded” stand apart in the source; their conditions may differ.

Tested on: EGF-induced AA release in HaCaT keratinocytes
Experiment: [3H]-Arachidonic acid release assay in EGF-stimulated HaCaT keratinocytes
Format: cell-based, human
Details: EGF 100 ng/ml 1 h, dose-dependent, FIG. 2
Procedure: The spontaneously immortalized skin keratinocyte cell line HaCaT (kindly provided by Prof. N. Fusenig, Heidelberg, Deutsches Krebsforschungszentrum, Germany) was cultured in DMEM supplemented with 10% (v/v) FBS, 0.3 mg/ml glutamine, and 0.1 mg/ml gentamicin at 37° C. with 5% CO2 in a humidified atmosphere. For release assays, flow cytometry cell cycle analysis and in vitro cPLA2α activity assay, cells were grown in 48 well trays or in 6 well trays, respectively. Cells were cultivated until 2 days post-confluency; serum starved in DMEM/0.5% FBS overnight and processed at day 3 post-confluence to ensure differentiation. Experiments were performed in DMEM/0.5% FBS. Untreated cells without inducing agents were included for unstimulated control. […] Cells were lysed and 200 μg of total protein was analyzed for cPLA2α activity as described. […] Following washing three times with Tris-buffered saline containing […], immunoreactive proteins were detected by horseradish peroxidase-conjugated secondary antibody (1 hour at room temperature) and SuperSignal® West Femto Maximum Sensivity substrate. Blots were analyzed by the BioRad Image Lab software, and target protein band intensities were normalized to α-tubulin. […] After labelling, the cells were washed twice with phosphate-buffered saline (PBS) containing fatty acid free BSA (2 mg/ml) (fBSA) in order to remove unincorporated radioactivity. […]

CC/C=C\C/C=C\C/C=C\C/C=C\C/C=C\CCSCC(=O)C(F)(F)F [AVX002]
effect on EGF-induced AA-release: completely abrogated; also recorded: reduced AA-release to below basal release in a dose-dependent manner
